Measurements taken from patent US10005815B2, “Biologically cleavable tetrapeptide linking agents” (Arrowhead Madison Inc., priority 2015, dated 2018).
Non-standard residues stand in square brackets, D forms with d. Residues, ends and D or L forms follow the SMILES beside them. *: point of attachment. CH3O(CH2CH2O)11CH2CH2CO = COCCOCCOCCOCCOCCOCCOCCOCCOCCOCCOCCOCCC(=O)*; X1 = O=[N+]([O-])c1ccc(NCCN*)cc1; Cit = NC(=O)NCCC[C@H](N)C(=O)O

Tests used:
rat liver S9 extract = experiment: Digestion with rat liver S9 extract; format: biochemical; conditions: normalized to compound 23
Method: (§1) Proteolytic digestion experiments were carried out at a fixed substrate concentration (0.51 μmol) using liver lysosomal (enzyme) extract (0.45 μg/μL) in a 25 mM MES solution buffered to pH 5 containing 1% CHAPS and 1.8 mM DTT incubated at 37° C. Enzyme extract was activated in the presence of DTT for 15 minutes at 37° C. prior to addition of AENA labeled peptide substrates. At various time points, up to 26 h, 20 μL aliquots were removed and acidified to a pH of 3 with TFA. Analysis of fractions was performed using HPLC with a Aquasil C18 reverse-phase column (250×4.6, Thermofisher, Waltham, Mass.), monitored at 390 nm and 335 nm for AENA and EDANS respectively. Elution was performed with a gradient of acetonitrile and water buffered with 0.1% formic acid. Generation of unmodified reporter molecule was measured. To minimize freeze thaw cycles the lysosomal extract was dispensed into multiple aliquots prior to storage at −80° C. A new aliquot was employed for each study and used immediately upon thawing. Lysosomal extract was sourced from female Hans Wistar rats by differential density gradient centrifugation (Graham et al. 2000). Protein concentration of lysosomal extract was determined by standard BCA protein assay protocols. Compound 60 was used for normalization of velocity between experiments (Tables 2-4). […] Normalized sample velocity was calculated as: [(average compound 60 velocity[…]experimental compound 60 velocity)]×sample experimental velocity.
(§2) The observed rates of cleavage were not dependent on the source of proteolytic enzymes. The order of increasing velocity (23>30>37>42) was maintained when digested using commercially available rat and human liver S9 extract (Xenotech LLC, Lenexa, Kans.) (Table 5). Thus rates of cleavage are expected to be similar across different species and cell types.

human liver S9 extract = experiment: Digestion with human liver S9 extract; format: biochemical; conditions: normalized to compound 23
Method: as §1, §2

[1] = test system: liver lysosomal (enzyme) extract; experiment: Digestion assay with rat liver lysosomal extract; format: biochemical; conditions: for Sample Velocity / Normalized Velocity: AENA substrates; for Sample Velocity: linear rate of reporter generation at <50% completion, pH 5, 37° C.; for Normalized Velocity: normalized with compound 60 velocity (average 123.8 nmol/h); for Relative Velocity, Lysosomal Extract: normalized to compound 23
Method: Various amino acid combinations, tetrapeptides, were used to link various first moieties (R^5) and an AENA report group second compound (R^6) to form assay substrates (substrates). Cleavage rate of the peptides were evaluated by analysis of digestion of the substrates in the presence of rat lysosomal extract.
Reporting groups were coupled to the C-terminus of the peptide substrates as described above for UV-vis monitoring to explore the influence of amino acid sequence on kinetics of peptide degradation by HPLC. N-(2-aminoethyl)-4-nitroaniline (AENA) or N-(aminoethyl)-5-napthylamine-1-sulfonic acid (EDANS) were used as reporting groups for HPLC monitoring as neither absorptivity nor lambda maximum were affected for either after cleavage from the peptide. The N-terminus of each peptide substrate was modified with either methoxy polyethylene glycol (PEG12) or N-acetyl galactosamine (NAG(OR)3) (FIG. 1).
Proteolytic digestion experiments were carried out at a fixed substrate concentration (0.51 μmol) using liver lysosomal (enzyme) extract (0.45 μg/μL) in a 25 mM MES solution buffered to pH 5 containing 1% CHAPS and 1.8 mM DTT incubated at 37° C. Enzyme extract was activated in the presence of DTT for 15 minutes at 37° C. prior to addition of AENA labeled peptide substrates. At various time points, up to 26 h, 20 μL aliquots were removed and acidified to a pH of 3 with TFA. Analysis of fractions was performed using HPLC with a Aquasil C18 reverse-phase column (250×4.6, Thermofisher, Waltham, Mass.), monitored at 390 nm and 335 nm for AENA and EDANS respectively. Elution was performed with a gradient of acetonitrile and water buffered with 0.1% formic acid. Generation of unmodified reporter molecule was measured. To minimize freeze thaw cycles the lysosomal extract was dispensed into multiple aliquots prior to storage at −80° C. A new aliquot was employed for each study and used immediately upon thawing. Lysosomal extract was sourced from female Hans Wistar rats by differential density gradient centrifugation (Graham et al. 2000). Protein concentration of lysosomal extract was determined by standard BCA protein assay protocols. […]
Rate (also called velocity of degradation or velocity) was extrapolated during early linear turnover (Table 2). As used herein, rate is defined as the linear rate of reporting group generation at less than 50% completion (digestion rate was assumed to be linear at less than 50% completion). For substrates in which cleavage deviated from consecutive first order kinetics, the percent of reporting group liberated at the endpoint of digestion was used as a metric for comparison.

Factor VII = experiment: Serum Factor VII activity after DPC-mediated siRNA delivery in mice; format: in vivo; conditions: for effectiveness as modifying agent in DPC-mediated siRNA delivery: Factor VII knockdown; for Relative F VII activity: polymer-siRNA conjugate modified with the PEG-peptide agent and CDM-NAG, 1 mg/kg polymer, 0.25 mg/kg siRNA, day 5
Method: PEG tetrapeptide modifying agents were synthesized by using a PEG group at R^5 and an activated ester at R^7 (formula V). Membrane active polyamines (see below) were modified with Factor VII siRNA, CDM-NAG and the indicated tetrapeptide (45b, 46) or tripeptide control (47) modifying agents as previously described (U.S. Pat. Nos. 8,137,695 and 8,426,554) to form a dynamic polyconjugate delivery polymer. 1 mg/kg polymer conjugated to 0.25 mg/kg siRNA was then injected into mice. At day 5, samples were collected and assayed for Factor VII. Knockdown of Factor VII requires cleavage of the modifying agent from the polyamine at a rate similar to the previously described CDM masking agents and dipeptide-PABC masking agents. […] For dynamic polyconjugate delivery polymers modified with PEG12 functionalized tetrapeptides, the order of increasing knockdown in vivo (45b>46>47) correlated with in vitro kinetic results. Validation of the in vitro model for kinetic evaluation was shown by the results obtained in animal studies.
Polyacrylate EAB in 5 mM pH 8.0 HEPES buffer was modified 1.5 wt % with a N-hydroxysuccinimidyl activated PEG4 azide (Azido-dPEG4-NHS ester from Quanta Biodesign) to provide azide groups for subsequent attachment of siRNA. The azide-modified polymer was then diluted to 5 mg/mL in 60 mg/mL HEPES base. To this solution was added 15 mg/mL (3 wt equivalents) of the indicated protease-cleavable PEG modifying reagents (the described herein tetrapeptide agents or PEG12-FCit-PABC-PNP (8426554) to modify 40-50% of available amine groups. After 1 h, DBCO-modified rodent factor VII siRNA (0.25 wt eq relative to polymer) was added to polymer solution. After incubation overnight, conjugates were further modified by addition of molar excess relative to available amine groups of an N-acetylgalactosamine derivative CDM-NAG, NAG-A^4-A^3-A^2-A^1-NHS or NAG-ACit-PABC-PNP (U.S. Pat. No. 8,426,554, Rozema et al. 2015, Carlson et al. 2015), and incubated for 30 min to reversibly modify remaining polymer EAB amines.
Male Wistar Han rats and female ICR mice, 6 to 8 weeks old, were obtained from Harlan Sprague-Dawley, (Indianapolis, Ind.). Animals were handled in accordance with animal used protocols approved by the Animal Care and Use Committee at Arrowhead Madison Inc. Rodents were maintained on a 12 hours light/dark cycle with free access to water and food (Harlan Teklad Rodent Diet, Harlan, Madison, Wis.). Animals were injected with 1 mg/kg polymer conjugated to 0.25 mg/kg siRNA. Samples were collected 5 days post injection.
FVII activity in serum was measured with a chromogenic method using a test kit (BIOPHEN VII, Aniara, Mason, Ohio) following manufacturer's recommendations. Absorbance of colorimetric development was measured using a Tecan Safire-2 microplate reader at 405 nm.

Row | Compound | Relative Velocity, RAT S9 Extract (rat liver S9 extract) | Relative Velocity, HUMAN S9 Extract (human liver S9 extract) | Sample Velocity [1] | Normalized Velocity [1] | % Released at Endpoint (21 hr) [1] | Relative Velocity, Lysosomal Extract [1] | effectiveness as modifying agent in DPC-mediated siRNA delivery (Factor VII) | Relative F VII activity (Factor VII)
1 | COCCOCCOCCOCCOCCOCCOCCOCCOCCOCCOCCOCCC(=O)N[C@@H](Cc1ccccc1)C(=O)N[C@@H](CCCNC(N)=O)C(=O)N[C@@H](Cc1ccccc1)C(=O)N1CCC[C@H]1C(=O)NCCNc1ccc([N+](=O)[O-])cc1 [Compound 23, PEG12-FCitFP-AENA] ({CH3O(CH2CH2O)11CH2CH2CO}-F[Cit]FP-X1) | 100.0 | 100.0 | – | – | – | – | – | –
2 | NAG(OAc)3-ACitAP- AENA [Compound 37] | 3.3 | 7.1 | 11.8 nmol/h | 13.5 nmol/h | 44.2% | 7.0 | – | –
3 | PEG-FCitAP-OSu [Compound 45b] | – | – | – | – | – | – | effective modifying agents | 40 ± 06
4 | NAG(OAc)3-FCitAP- AENA [Compound 30] | 28.3 | 45.7 | 54.3 nmol/h | 62.0 nmol/h | 96.5% | 32.1 | – | –
5 | COCCOCCOCCOCCOCCOCCOCCOCCOCCOCCOCCOCCC(=O)N[C@@H](CCCNC(N)=O)C(=O)N[C@@H](C)C(=O)N1CCC[C@H]1C(=O)NCCNc1ccc([N+](=O)[O-])cc1 [Compound 42, PEG12-CitAP-AENA] | 0.6 | 1.7 | – | – | – | – | – | –
6 | PEG-CitAP-OSu [Compound 47] | – | – | – | – | – | – | – | 97 ± 34
7 | PEG-ACitAP-OSu [Compound 46] | – | – | – | – | – | – | effective modifying agents | 66 ± 28
